Experiment: Hydrogel disc shrinking capacity with polycation solutions
Experimental: Hydrogels were made from gelMA A or B, fish GelMA, and/or HAMA and were prepared at different concentrations. GelMA formulations were dissolved whilst stirring in MilliQ water at 37° C. for 2 h. HAMA formulations were dissolved into MilliQ water overnight under agitation. Both HAMA and gelMA solutions were supplemented with 0.1 wt % Irgacure 2959 (Sigma-Aldrich) prior to UV crosslinking. The prepared polymer solutions were cast in circular PDMS molds (diameter: 4.5 cm) and subsequently UV-irradiated (methacrylate conversion was determined to be >95%). Subsequently, a biopsy punch (Integra Miltex, various diameters) was used to cut cylindrical hydrogels of 2 mm in height.
Shrinking agents were dissolved overnight in either phosphate-buffered saline (170 mM of ionic strength, pH 7.4) or diluted or NaCl-supplemented phosphate buffer (17-700 mM ionic strengths, pH 7.4) for up to 2.0 wt %. Cut hydrogels were initially measured using Vernier calipers (standard error=30 μm) to determine their volumes and subsequently incubated in the various shrinking agent solutions (volume: 2 mL, n=3 for every condition). Unless stated otherwise, incubation was done at room temperature. Hydrogel diameter and height were monitored either over time to determine hydrogel shrinking kinetics or after full dehydration had occurred to determine maximum shrinking capacity (typically after 12 h).

With lysozyme the hydrogel shrinking (isotonic conditions (170 mM of ionic strength and pH 7.4)) was “did not shrink at all” and the hydrogel shrinking (reduced ionic strength (85 mM, pH 7.4)) was “hydrogel shrinking was observed”.

— US20240002786A1, “SHRINKABLE HYDROGELS” (THE BRIGHAM AND WOMEN'S HOSPITAL, INC., priority 2020, published 2024)
